Results as given in the NIST ThermoML archive (doi:10.1016/j.fluid.2006.06.013).
Numbers after ± are expanded uncertainties.

Key:
[1] = for vapor or sublimation pressure: Liquid
[2] = refractive index (Na D-line) (dimensionless); conditions: 293.2 K; 101.33 kPa; Liquid; Standard Abbe refractometry

| Compound | vapor or sublimation pressure ([1]; 417.59 K) [kPa] | vapor or sublimation pressure ([1]; 425.4 K) [kPa] | vapor or sublimation pressure ([1]; 435.12 K) [kPa] | vapor or sublimation pressure ([1]; 444.5 K) [kPa] | vapor or sublimation pressure ([1]; 454.9 K) [kPa] | vapor or sublimation pressure ([1]; 466.01 K) [kPa] | vapor or sublimation pressure ([1]; 475.82 K) [kPa] | vapor or sublimation pressure ([1]; 486.11 K) [kPa] | vapor or sublimation pressure ([1]; 496.11 K) [kPa] | vapor or sublimation pressure ([1]; 506.87 K) [kPa] | vapor or sublimation pressure ([1]; 516.84 K) [kPa] | vapor or sublimation pressure ([1]; 525.54 K) [kPa] | refractive index [2] | Normal melting temperature ([1]; Crystal, visual observation) [°C] |
| --- | --- | --- | --- | --- | --- | --- | --- | --- | --- | --- | --- | --- | --- | --- |
| COC(=O)c1ccccc1C(=O)OC [dimethyl 1,2-benzenedicarboxylate] | 0.934 ± 0.12 | 1.466 ± 0.13 | 2.21 ± 0.13 | 3.356 ± 0.13 | 5.164 ± 0.13 | 7.823 ± 0.14 | 11.13 ± 0.14 | 15.42 ± 0.15 | 20.93 ± 0.15 | 28.7 ± 0.17 | 38.16 ± 0.18 | 48.71 ± 0.2 | 1.516 ± 0.001 |  |
| O=C1C=CC(=O)O1 [maleic anhydride] |  |  |  |  |  |  |  |  |  |  |  |  |  | 52.5 ± 0.5 |
